Data on 22 compounds can be found in ChEMBL document CHEMBL4184238, “Synthesis and biological evaluation of a series of novel pyridinecarboxamides as potential multi-receptor antipsychotic drugs” (Bioorg Med Chem Lett, 2018).

The source made the active and inactive calls. No cut-off for these calls is given here.

Data set [1] deals with Mus musculus. Put plainly: Antipsychotic-like activity in ICR mouse assessed as inhibition of PCP-induced hyperlocomotion at 3 mg/kg, ig followed by animal habituation for 10 mins before 60 mins measurement period. It is filed as functional, organism-based.
For data set [2], the target named is D(2) dopamine receptor (Homo sapiens, UniProt P14416). Put plainly: Antagonistic activity at human dopamine D2 receptor measured after 60 mins by Lance Ultra cAMP assay. The class given is functional.
The target of data set [3] is T1, 5-hydroxytryptamine receptor 1A (Homo sapiens, UniProt P08908).
T1 sequence (P08908 whole entry): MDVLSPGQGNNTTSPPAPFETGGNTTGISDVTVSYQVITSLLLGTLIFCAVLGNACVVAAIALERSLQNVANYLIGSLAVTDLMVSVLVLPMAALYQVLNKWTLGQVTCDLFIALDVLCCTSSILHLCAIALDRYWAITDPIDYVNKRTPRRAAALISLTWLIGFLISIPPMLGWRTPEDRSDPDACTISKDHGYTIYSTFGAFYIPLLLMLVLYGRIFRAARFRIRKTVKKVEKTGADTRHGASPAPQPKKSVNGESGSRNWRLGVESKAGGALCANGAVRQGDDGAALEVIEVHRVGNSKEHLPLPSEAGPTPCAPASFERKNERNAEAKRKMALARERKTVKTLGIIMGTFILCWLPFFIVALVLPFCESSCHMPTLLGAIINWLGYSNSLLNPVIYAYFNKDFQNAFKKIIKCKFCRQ
Put plainly: Agonistic activity at human 5-HT1A receptor measured after 60 mins by Ultra Lance cAMP assay. The class given is functional.

The target in data set [4] is 5-hydroxytryptamine receptor 2A (Homo sapiens, UniProt P28223). Put plainly: Antagonistic activity at human 5-HT2A receptor assessed as calcium flux after 10 mins by FLIPR assay. It is filed as functional.
Data set [5] in a line: Stability in human liver microsomes assessed as parent compound remaining level at 2 uM in presence of NADPH incubated for 30 mins by LC-MS/MS method. It is filed as ADME, microsome. The conditions noted are these: read-out: Stability. On the technique in general: Liver microsomes are vesicles of endoplasmic reticulum, rich in cytochrome P450 enzymes.
The target in data set [6] is T2, 5-hydroxytryptamine receptor 2C (Homo sapiens, UniProt P28335).
T2 sequence (P28335 whole entry): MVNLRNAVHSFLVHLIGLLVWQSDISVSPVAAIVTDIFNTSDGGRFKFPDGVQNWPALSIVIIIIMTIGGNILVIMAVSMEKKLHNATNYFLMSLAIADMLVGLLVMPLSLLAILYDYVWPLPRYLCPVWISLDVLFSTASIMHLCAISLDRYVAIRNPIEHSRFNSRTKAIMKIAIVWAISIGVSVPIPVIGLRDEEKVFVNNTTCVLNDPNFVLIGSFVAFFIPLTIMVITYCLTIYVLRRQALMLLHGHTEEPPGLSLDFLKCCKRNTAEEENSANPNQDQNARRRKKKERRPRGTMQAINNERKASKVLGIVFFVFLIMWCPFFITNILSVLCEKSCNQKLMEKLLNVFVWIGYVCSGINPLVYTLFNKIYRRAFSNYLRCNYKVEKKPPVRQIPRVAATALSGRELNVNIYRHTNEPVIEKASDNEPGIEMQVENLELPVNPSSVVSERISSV
As to the kind of experiment: Antagonistic activity at 5-HT2c receptor (unknown origin) after 10 mins by FLIPR assay. It is filed as functional.

Data set [7] concerns the target T3, Alpha-1A adrenergic receptor (Homo sapiens, UniProt P35348).
T3 sequence (P35348 whole entry): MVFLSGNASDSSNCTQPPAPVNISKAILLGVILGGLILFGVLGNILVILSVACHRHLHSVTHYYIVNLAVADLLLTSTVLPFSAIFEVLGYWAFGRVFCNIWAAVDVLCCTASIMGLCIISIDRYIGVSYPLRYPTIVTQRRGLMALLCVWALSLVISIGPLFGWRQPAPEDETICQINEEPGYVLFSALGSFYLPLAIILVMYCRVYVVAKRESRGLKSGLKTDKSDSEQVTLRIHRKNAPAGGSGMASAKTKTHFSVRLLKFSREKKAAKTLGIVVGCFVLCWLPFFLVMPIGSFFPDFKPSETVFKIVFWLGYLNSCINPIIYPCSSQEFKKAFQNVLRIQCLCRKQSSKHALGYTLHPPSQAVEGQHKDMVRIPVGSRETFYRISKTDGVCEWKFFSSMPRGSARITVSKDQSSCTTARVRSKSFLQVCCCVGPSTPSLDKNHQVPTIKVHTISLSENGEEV
Put plainly: Antagonistic activity at alpha-1A adrenergic receptor (unknown origin) after 10 mins by FLIPR assay. It is filed as functional.

The target in data set [8] is Histamine H1 receptor (Homo sapiens, UniProt P35367). As to the kind of experiment: Antagonistic activity at histamine 1 receptor (unknown origin) after 10 mins by FLIPR assay. The class given is functional.
For data set [9], the system named is Mus musculus. Put plainly: Antipsychotic-like activity in ICR mouse assessed as inhibition of PCP-induced hyperlocomotion at 0.3 to 3 mg/kg, ig followed by animal habituation for 10 mins before 60 mins measurement period. The class given is functional, organism-based.

D(2) dopamine receptor, sequence (P14416 whole entry): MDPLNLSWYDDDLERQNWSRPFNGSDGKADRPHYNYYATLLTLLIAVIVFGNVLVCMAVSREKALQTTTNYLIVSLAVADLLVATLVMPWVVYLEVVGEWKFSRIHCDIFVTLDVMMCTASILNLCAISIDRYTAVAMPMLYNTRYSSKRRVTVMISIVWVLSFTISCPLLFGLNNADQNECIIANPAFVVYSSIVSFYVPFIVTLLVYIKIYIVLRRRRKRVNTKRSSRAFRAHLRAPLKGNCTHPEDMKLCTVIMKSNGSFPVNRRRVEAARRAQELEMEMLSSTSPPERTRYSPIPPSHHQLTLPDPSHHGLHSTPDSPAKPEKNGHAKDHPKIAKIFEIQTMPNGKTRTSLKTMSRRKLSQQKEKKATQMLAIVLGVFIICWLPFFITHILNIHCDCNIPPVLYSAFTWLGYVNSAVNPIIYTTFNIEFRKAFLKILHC
Histamine H1 receptor, sequence (P35367 whole entry): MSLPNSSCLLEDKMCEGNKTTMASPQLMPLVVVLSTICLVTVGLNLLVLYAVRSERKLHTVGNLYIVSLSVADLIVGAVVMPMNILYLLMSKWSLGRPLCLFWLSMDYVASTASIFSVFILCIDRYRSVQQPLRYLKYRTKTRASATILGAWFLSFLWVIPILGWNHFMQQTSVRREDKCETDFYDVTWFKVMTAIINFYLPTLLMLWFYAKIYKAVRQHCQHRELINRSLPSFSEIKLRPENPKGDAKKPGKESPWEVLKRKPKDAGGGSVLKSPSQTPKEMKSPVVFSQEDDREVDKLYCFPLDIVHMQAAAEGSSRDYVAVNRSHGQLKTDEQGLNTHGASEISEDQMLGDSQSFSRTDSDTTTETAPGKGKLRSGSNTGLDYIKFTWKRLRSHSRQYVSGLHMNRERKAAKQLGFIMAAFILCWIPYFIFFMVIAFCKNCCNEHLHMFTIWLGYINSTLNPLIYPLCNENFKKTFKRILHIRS
5-hydroxytryptamine receptor 2A, sequence (P28223 whole entry): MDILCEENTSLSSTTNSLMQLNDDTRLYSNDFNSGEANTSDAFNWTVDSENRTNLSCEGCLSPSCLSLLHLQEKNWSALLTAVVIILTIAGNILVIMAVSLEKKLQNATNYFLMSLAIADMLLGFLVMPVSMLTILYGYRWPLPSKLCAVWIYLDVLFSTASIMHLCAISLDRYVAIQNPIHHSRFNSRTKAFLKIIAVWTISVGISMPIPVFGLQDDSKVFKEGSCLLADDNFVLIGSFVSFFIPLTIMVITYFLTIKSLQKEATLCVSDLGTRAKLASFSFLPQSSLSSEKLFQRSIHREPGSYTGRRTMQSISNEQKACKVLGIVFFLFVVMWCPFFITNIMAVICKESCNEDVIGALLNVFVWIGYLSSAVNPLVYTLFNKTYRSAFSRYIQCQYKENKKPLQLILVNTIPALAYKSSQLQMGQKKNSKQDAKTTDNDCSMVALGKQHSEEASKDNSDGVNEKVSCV

In the case of `O=C1CCc2ccc(OCCCCN3CCN(c4cccc(Cl)c4Cl)CC3)cc2N1`, the result in data set [1] was Active.
What is called IC50 is the midpoint of a concentration-inhibition curve. Usually EC50 stands for the concentration giving half of the maximal effect. A high value points to lower potency in that assay. Turning to `CNC(=O)c1ccnc(OCCCCN2CCC(c3noc4cc(F)ccc34)CC2)c1`, the IC50 in data set [2] worked out at 0.299 µM; in data set [4] it was 0.0624 µM. Further, the concentration for a half-maximal effect (EC50) in data set [3] was over 100 µM.
On to `O=C(NC1CC1)c1ccnc(OCCCCN2CCC(c3noc4cc(F)ccc34)CC2)c1`, for which the IC50 stood at 0.0517 µM in [2] and 0.0539 µM in data set [4]. The same compound came in with a 50% effective concentration (EC50) in data set [3] of over 100 µM.
`CNC(=O)c1cccc(OCCCCN2CCC(c3noc4cc(F)ccc34)CC2)c1`: the remaining at 0.5 h, 2 µM in data set [5] worked out at 97%.
In the case of `CNC(=O)c1cccc(OCCCCN2CCC(c3noc4cc(F)ccc34)CC2)n1`, the IC50 in [2] was 0.0093 µM; in data set [4] it was 0.134 µM. In data set [3], this compound displayed an EC50 of over 100 µM.
For the compound `CNC(=O)c1cc(OCCCCN2CCC(c3noc4cc(F)ccc34)CC2)ccn1`, the IC50 amounted to 0.0598 µM in data set [2]; 0.247 µM in data set [4]; 0.063 µM in data set [6]; 0.011 µM in data set [7]; 4.42 µM in [8]. This compound also had an EC50 in data set [3] of 0.009 µM. Also, the remaining at 0.5 h, 2 µM in data set [5] amounted to 98%.
Turning to `CNC(=O)c1cc(OCCCCN2CCN(c3nsc4ccccc34)CC2)ccn1`, the IC50 in data set [2] was found to be 0.0114 µM; in data set [4], 0.113 µM; in data set [6], 0.07 µM; in data set [7], 0.071 µM; in [8] it was 0.923 µM. The concentration for a half-maximal effect (EC50) in [3] turned out to be 0.0022 µM. Further, the remaining at 0.5 h, 2 µM in data set [5] came to 65%.
On to `O=C(NC1CC1)c1cncc(OCCCCN2CCC(c3noc4cc(F)ccc34)CC2)c1`, for which the IC50 in data set [2] worked out at 0.0425 µM; in data set [4], 0.0899 µM. Further, the EC50 in [3] was over 100 µM.
For `O=C(NC1CC1)c1cc(OCCCCN2CCN(c3nsc4ccccc34)CC2)ccn1`, in that order: 0.0652 µM, 0.324 µM and 0.0062 µM.
As to `CNC(=O)c1cc(OCCCCN2CCN(c3cccc(Cl)c3Cl)CC2)ccn1`, the IC50 came out at 0.0265 µM in data set [2] and 0.476 µM in [4]. The compound further came in with an EC50 in data set [3] of 0.0009 µM.
For `O=C(NC1CC1)c1cc(OCCCCN2CCC(c3noc4cc(F)ccc34)CC2)ccn1`, the IC50 in data set [2] is 0.0535 µM; in data set [4], 0.167 µM. Besides, a half-maximal effect in [3] (EC50) was put at 0.0281 µM.
Regarding `CNC(=O)c1cccc(OCCCCN2CCN(c3nsc4ccccc34)CC2)c1`, the remaining at 0.5 h, 2 µM in [5] is 25%.
For `CNC(=O)c1cncc(OCCCCN2CCC(c3noc4cc(F)ccc34)CC2)c1`, the IC50 stood at 0.123 µM in data set [2] and 0.0832 µM in data set [4]. Also, the EC50 in [3] was over 100 µM.
With `CNC(=O)c1cccc(OCCCCN2CCN(c3cccc4sccc34)CC2)n1`, the results for the IC50 in data set [2] and in data set [4] were 0.0861 µM and 0.106 µM, respectively. This compound had an EC50 in [3] of 0.0113 µM.
`CNC(=O)c1cc(OCCCCN2CCN(c3cccc4sc(F)cc34)CC2)ccn1`: the IC50 in data set [2] stood at 0.008 µM; in data set [4] it was 0.0649 µM. In data set [3], this compound registered a concentration for a half-maximal effect (EC50) of 0.0007 µM.
For the compound `CCNC(=O)c1cc(OCCCCN2CCC(c3noc4cc(F)ccc34)CC2)ccn1`, the IC50 in [2] worked out at 0.0376 µM; in [4] it was 0.0955 µM. This compound returned an EC50 in [3] of 0.0176 µM.
For `CNC(=O)c1cccc(OCCCCN2CCN(c3cccc(Cl)c3Cl)CC2)n1`, in that order: 0.0511 µM, 0.91 µM and 0.0236 µM.
Turning to `CCNC(=O)c1cncc(OCCCCN2CCC(c3noc4cc(F)ccc34)CC2)c1`, the 50% inhibitory concentration (IC50) in data set [2] was found to be 0.059 µM; in [4], 0.0942 µM. This compound also came in with an EC50 in [3] of over 100 µM.
For `CCNC(=O)c1ccnc(OCCCCN2CCC(c3noc4cc(F)ccc34)CC2)c1`, in that order: 0.0655 µM, 0.0675 µM and over 100 µM.
Consider `CNC(=O)c1cc(OCCCCN2CCN(c3cccc4sccc34)CC2)ccn1`, for which, in data set [9], the Activity entry was “Dose-dependent effect”. Besides, the IC50 in data set [2] is 0.024 µM; in data set [4], 0.154 µM; in [6] it was 0.346 µM; in data set [7] it was 0.164 µM; in [8], 0.418 µM. Also, the outcome in [1] was Active. For the same compound, the EC50 in data set [3] stood at 0.0012 µM. Moreover, the remaining at 0.5 h, 2 µM in data set [5] is 65%.
With `NC(=O)c1cc(OCCCCN2CCN(c3nsc4ccccc34)CC2)ccn1`, the IC50 in [2] turned out to be 0.0426 µM; in data set [4], 0.523 µM. This compound also returned an EC50 in data set [3] of 0.0165 µM.
Turning to `CNC(=O)c1cccc(OCCCCN2CCN(c3ccc4ccsc4c3)CC2)n1`, the 50% inhibitory concentration (IC50) in data set [2] is 0.412 µM; in data set [4], 1.28 µM. In addition, the EC50 in [3] was found to be 0.117 µM.
